# Laboratory results as given in ChEMBL document CHEMBL1201862, “PubChem BioAssay data set” (2004).
#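 These data come from cells grown in 96-well plates and exposed to compound for 48 hours at five concentrations. At the GI50, growth is halved.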 The source made the active and inactive calls. Rule as the data show it: active = GI50 up to about 1.1 µM and inactive = higher.
# Legend:
# Experiment in all cases: NCI-60 cell line screen, 48 h
# A549 = system: A549
# ACHN = system: ACHN
# CAKI-1 = system: CAKI-1
# CCRF-CEM = system: CCRF-CEM
# COLO 205 = system: COLO 205
# HCT-15 = system: HCT-15
# HOP-62 = system: HOP-62
# M14 = system: M14
# MOLT-4 = system: MOLT-4
# NCI-H226 = system: NCI-H226
# OVCAR-4 = system: OVCAR-4
# OVCAR-8 = system: OVCAR-8
# SF-539 = system: SF-539
# SK-MEL-28 = system: SK-MEL-28
# SK-MEL-5 = system: SK-MEL-5
# SN12C = system: SN12C
# SNB-75 = system: SNB-75
# TK-10 = system: TK-10
# U-251 = system: U-251
# RPMI-8226 = system: RPMI-8226
Structure (SMILES),GI50 (A549),GI50 (ACHN),GI50 (CAKI-1),GI50 (CCRF-CEM),GI50 (COLO 205),GI50 (HCT-15) [µM],GI50 (HOP-62),GI50 (M14),GI50 (MOLT-4),GI50 (NCI-H226),GI50 (OVCAR-4),GI50 (OVCAR-8),GI50 (SF-539),GI50 (SK-MEL-28),GI50 (SK-MEL-5),GI50 (SN12C),GI50 (SNB-75),GI50 (TK-10),GI50 (U-251),GI50 (RPMI-8226)
Cc1cc(=O)n(-c2c(C)cccc2Cl)c(/C=C(\O)c2ccncc2)n1,> 100 µM (inactive),> 100 µM (inactive),> 100 µM (inactive),> 100 µM (inactive),> 100 µM (inactive),> 100,> 100 µM (inactive),> 100 µM (inactive),> 100 µM (inactive),> 100 µM (inactive),> 100 µM (inactive),> 100 µM (inactive),> 100 µM (inactive),> 100 µM (inactive),96.4 µM (inactive),> 100 µM (inactive),29.4 µM (inactive),> 100 µM (inactive),> 100 µM (inactive),–
O=C(/C=C1\Nc2ccc([N+](=O)[O-])cc2N=C1NC12CC3CC(CC(C3)C1)C2)c1ccccc1,–,> 10 µM (inactive),> 10 µM (inactive),–,> 10 µM (inactive),> 10,> 10 µM (inactive),> 10 µM (inactive),–,5.5 µM (inactive),3.96 µM (inactive),9.64 µM (inactive),5.41 µM (inactive),> 10 µM (inactive),> 10 µM (inactive),> 10 µM (inactive),> 10 µM (inactive),9.91 µM (inactive),7.16 µM (inactive),–
Oc1cccc(C2SCc3nc4ccccc4n32)c1 (stereo not given),54.7 µM (inactive),33.8 µM (inactive),58.2 µM (inactive),48.2 µM (inactive),> 100 µM (inactive),–,–,–,31.6 µM (inactive),21.2 µM (inactive),–,96.2 µM (inactive),> 100 µM (inactive),59.4 µM (inactive),14.8 µM (inactive),82.2 µM (inactive),4.17 µM (inactive),> 100 µM (inactive),84.5 µM (inactive),39.3 µM (inactive)
CC(=O)c1cccc(C)c1C(=O)O,> 100 µM (inactive),> 100 µM (inactive),> 100 µM (inactive),> 100 µM (inactive),> 100 µM (inactive),> 100,> 100 µM (inactive),> 100 µM (inactive),> 100 µM (inactive),> 100 µM (inactive),> 100 µM (inactive),> 100 µM (inactive),–,> 100 µM (inactive),> 100 µM (inactive),> 100 µM (inactive),> 100 µM (inactive),> 100 µM (inactive),> 100 µM (inactive),> 100 µM (inactive)
CCCCCCCCCCCCCCCCOCC(Cl)CP(=O)(O)OP(=O)(O)OCC1OC(n2cnc3c(N)ncnc32)C(O)C1O (stereo not given),> 100 µM (inactive),> 100 µM (inactive),> 100 µM (inactive),> 100 µM (inactive),> 100 µM (inactive),> 100,> 100 µM (inactive),> 100 µM (inactive),> 100 µM (inactive),> 100 µM (inactive),> 100 µM (inactive),> 100 µM (inactive),> 100 µM (inactive),> 100 µM (inactive),> 100 µM (inactive),> 100 µM (inactive),> 100 µM (inactive),> 100 µM (inactive),74 µM (inactive),–
Cn1c(=O)c2c(nc(C[N+]3([O-])CCOCC3)n2C)n(C)c1=O,> 100 µM (inactive),> 100 µM (inactive),36.9 µM (inactive),> 100 µM (inactive),> 100 µM (inactive),> 100,> 100 µM (inactive),> 100 µM (inactive),> 100 µM (inactive),> 100 µM (inactive),–,> 100 µM (inactive),> 100 µM (inactive),> 100 µM (inactive),> 100 µM (inactive),> 100 µM (inactive),63.5 µM (inactive),> 100 µM (inactive),> 100 µM (inactive),> 100 µM (inactive)
CCSC1=N/C(=C/c2ccccc2O)C(=O)N1,> 100 µM (inactive),39.2 µM (inactive),> 100 µM (inactive),> 100 µM (inactive),> 100 µM (inactive),> 100,41.1 µM (inactive),> 100 µM (inactive),> 100 µM (inactive),31.9 µM (inactive),–,41.9 µM (inactive),20.7 µM (inactive),> 100 µM (inactive),> 100 µM (inactive),67.1 µM (inactive),25.1 µM (inactive),–,38.7 µM (inactive),> 100 µM (inactive)
CN(C)CCCCN1CCc2c(n(C)c3ccccc23)C1=O,64.7 µM (inactive),> 77.1 µM (inactive),> 55.8 µM (inactive),67.9 µM (inactive),35.3 µM (inactive),39.4,51.3 µM (inactive),18.5 µM (inactive),48.1 µM (inactive),> 61.5 µM (inactive),> 86.7 µM (inactive),> 83.4 µM (inactive),–,20.3 µM (inactive),21.3 µM (inactive),68.1 µM (inactive),34.1 µM (inactive),–,–,–
C=CCOc1ccc(C(=N/NC(=O)c2ccccc2)/N=N/c2ccc(C)cc2)cc1OC,26.2 µM (inactive),34.8 µM (inactive),40.8 µM (inactive),9.14 µM (inactive),16.5 µM (inactive),35.1,37.8 µM (inactive),22.7 µM (inactive),26.5 µM (inactive),20.6 µM (inactive),37.9 µM (inactive),25.4 µM (inactive),–,20 µM (inactive),17.9 µM (inactive),31.7 µM (inactive),20.2 µM (inactive),30 µM (inactive),10.4 µM (inactive),–
O=[N+]([O-])c1cnc(N(CCO)CCO)s1,> 100 µM (inactive),> 100 µM (inactive),> 100 µM (inactive),79.6 µM (inactive),> 100 µM (inactive),> 100,> 100 µM (inactive),> 100 µM (inactive),> 100 µM (inactive),> 100 µM (inactive),> 100 µM (inactive),> 100 µM (inactive),> 100 µM (inactive),> 100 µM (inactive),> 100 µM (inactive),> 100 µM (inactive),< 0.01 µM (active),–,> 100 µM (inactive),–
CCC1(c2ccc(OC)c(OC)c2)CCN2C(=O)C(O)CC21 (stereo not given),> 100 µM (inactive),> 100 µM (inactive),> 100 µM (inactive),> 100 µM (inactive),> 100 µM (inactive),> 100,> 100 µM (inactive),> 100 µM (inactive),> 100 µM (inactive),> 100 µM (inactive),> 100 µM (inactive),–,–,> 100 µM (inactive),> 100 µM (inactive),> 100 µM (inactive),> 100 µM (inactive),> 100 µM (inactive),> 100 µM (inactive),–
